Test results taken from ChEMBL document CHEMBL3526091, “Pharmacokinetics, metabolism, and excretion of the glycogen synthase kinase-3 inhibitor LY2090314 in rats, dogs, and humans: a case study in rapid clearance by extensive metabolism with low circulating metabolite exposure” (Drug Metab Dispos, 2013).
One block for each compound: values may come before it.

Assays:
Settings in all cases: in vivo
[1] = Drug recovery in bile duct-cannulated Sprague-Dawley rat assessed as radioactivity in bile during 0 to 12 hrs treated with 5 mg/kg, iv LY2090314 for 30 mins; format: ADME, organism-based; design: dose 5 mg/kg, dosed compound name [14C]LY2090314, route intravenous
Plasma [2] = assay: Drug recovery in beagle dog plasma assessed as radiochemical peak area treated with 5 mg/kg, iv LY2090314 for 30 mins after 0.5 hrs by radio analysis; format: ADME, organism-based, Canis lupus familiaris; design: dose 5 mg/kg, dosed compound name [14C]LY2090314, route intravenous
Plasma [3] = assay: Drug recovery in beagle dog plasma assessed as radiochemical peak area treated with 5 mg/kg, iv LY2090314 for 30 mins after 2 hrs by radio analysis; format: ADME, organism-based, Canis lupus familiaris; design: dose 5 mg/kg, dosed compound name [14C]LY2090314, route intravenous
[4] = Drug recovery in bile duct-intact beagle dog assessed as radioactivity in feces during 0 to 48 hrs treated with 5 mg/kg, iv LY2090314 for 30 mins; format: ADME, organism-based, Canis lupus familiaris; design: dose 5 mg/kg, dosed compound name [14C]LY2090314, route intravenous
[5] = Drug recovery in po dosed human urine; format: ADME, organism-based; design: dosed compound name Ruboxistaurin
[6] = Drug recovery in po dosed mouse feces; format: ADME, organism-based; design: dosed compound name Ruboxistaurin
[7] = Drug recovery in po dosed rat bile; format: ADME, organism-based; design: dosed compound name Ruboxistaurin
[8] = Drug recovery in po dosed rat urine; format: ADME, organism-based; design: dosed compound name Ruboxistaurin
[9] = Drug recovery in po dosed dog urine; format: ADME, organism-based, Canis lupus familiaris; design: dosed compound name Ruboxistaurin
[10] = Drug recovery in po dosed human feces; format: ADME, organism-based; design: dosed compound name Ruboxistaurin
[11] = Drug recovery in po dosed rat feces; format: ADME, organism-based; design: dosed compound name Ruboxistaurin
[12] = Drug recovery in po dosed dog feces; format: ADME, organism-based, Canis lupus familiaris; design: dosed compound name Ruboxistaurin
[13] = Drug recovery in po dosed mouse urine; format: ADME, organism-based; design: dosed compound name Ruboxistaurin

- Compound recovery [1]: 4.15%
- Compound recovery (Plasma [2]): 0.1%
- Compound recovery (Plasma [3]): 0%
Compound: NC(=O)N1CCn2cc(C3=C(c4cnc5ccccn45)C(=O)NC3=O)c3cc(F)cc(c32)C1

- Compound recovery [1]: 0%
Compound: O=C(O)CCNC(=O)N1CCn2cc(C3=C(c4cnc5ccccn45)C(=O)NC3=O)c3cc(F)cc(c32)C1

- Compound recovery (Plasma [2]): 12.66%
- Compound recovery [4]: 5.42%
- Compound recovery (Plasma [3]): 18.81%
Compound: O=C1NC(=O)C(c2c[n+](O[C@@H]3O[C@H](C(=O)O)[C@@H](O)[C@H](O)[C@H]3O)c3ccccn23)=C1c1cn2c3c(cc(F)cc13)CN(C(=O)N1CCCCC1)CC2

- Compound recovery [1]: 6.76%
Compound: O=C(CCNC(=O)N1CCn2cc(C3=C(c4cnc5ccccn45)C(=O)NC3=O)c3cc(F)cc(c32)C1)NCCS(=O)(=O)O

- Radiolabel recovery [5]: <= 4%
- Radiolabel recovery [6]: 83%
- Radiolabel recovery [7]: 59%
- Radiolabel recovery [8]: <= 4%
- Radiolabel recovery [9]: <= 4%
- Radiolabel recovery [10]: 83%
- Radiolabel recovery [11]: 83%
- Radiolabel recovery [12]: 83%
- Radiolabel recovery [13]: <= 4%
Compound: CN(C)C[C@@H]1CCn2cc(c3ccccc32)C2=C(C(=O)NC2=O)c2cn(c3ccccc23)CCO1 [RUBOXISTAURIN]
